Experimental data taken from patent US7456199B2, “Biphenyl compounds useful as muscarinic receptor antagonists” (Theravance, Inc., priority 2004, dated 2008).

Tested on: MCh depressor responses
Assay: Methacholine-induced depressor responses in conscious guinea pigs
Assay type: in vivo, guinea pig
Conditions: inhalation
From the text: Healthy, adult, male Sprague-Dawley guinea pigs (Harlan, Indianapolis, Ind.), weighing between 200 and 300 g were used in these studies. Under isoflurane anesthesia (to effect), animals were instrumented with common carotid artery and jugular vein catheters (PE-50 tubing). The catheters were exteriorized utilizing a subcutaneous tunnel to the subscapular area. All surgical incisions were sutured with 4-0 Ethicon Silk and the catheters locked with heparin (1000 units/mL). Each animal was administered saline (3 mL, SC) at the end of surgery as well as buprenorphine (0.05 mg/kg, IM). Animals were allowed to recover on a heating pad before being returned to their holding rooms.
Approximately 18 to 20 hours following surgery, the animals were weighed and the carotid artery catheter on each animal was connected to a transducer for recording arterial pressure. Arterial pressure and heart rate was recorded using a Biopac MP-100 Acquisition System. Animals were allowed to acclimate and stabilize for a period of 20 minutes.
Each animal was challenged with MCh (0.3 mg/kg, IV) administered through the jugular venous line and the cardiovascular response was monitored for 10 minutes. […] At 1.5 and 24 h post-dosing, the animals were re-challenged with MCh (0.3 mg/kg, IV) and the hemodynamic response was determined. […]

SMILES: O=C(CCN1CCC(OC(=O)Nc2ccccc2-c2ccccc2)CC1)Nc1ccc(CNCc2ccc(O)cc2)cc1 [Example 1, Biphenyl-2-ylcarbamic Acid 1-(2-{4-[(4-Hydroxybenzylamino)methyl]phenylcarbamoyl}ethyl)piperidin-4-yl Ester]
- apparent lung-selectivity index (ratio of anti-depressor ID50 to bronchoprotective ID50): greater than 5
